Reference: patent US20210378241A1, “COMBINATION COMPRISING A BENZAMIDE HERBICIDE AND A PYRIDINE CARBOXYLIC ACID HERBICIDE, AND A METHOD FOR MAKING AND USING THE COMBINATION” (Generic Crop Science LLC, priority 2020, published 2021)

What was measured:
[1] = system: smooth pigweed; settings: 0.05 to 0.14 kg ai/ha, regardless of application method or herbicide rate; cited from earlier work
[2] = system: weeds in seedling alfalfa; assay: Field trial in seedling alfalfa, Brawley, Calif.: percent weed control (burndown), 0 to 100% visual scale; assay type: in vivo; settings: for Percent Weed Control (Burndown), mean: single application on seedling alfalfa, use rates of Table 5, 4 replicates; for Overall weed control (higher % control and lower weed densities), in words: all rating dates 6-34 DAA
Description: (§1) The objective of this study was to evaluate the performance of PRONAMIDE and IMAZETHAPYR in commercial alfalfa hay production in Brawley, Calif. Trial treatments applied were as follows:
(§2) Treatments were applied on seedling alfalfa on March 14th at second to third trifoliate stage (3-4 inches tall). Treatment applications were made using a research CO2 backpack sprayer calibrated to deliver 50 gallons of solution per acre operating at 30 PSI. Weeds on the plots were on average 2-3 inches tall. Weather conditions during application were 34.3% RH, air and soil temperatures were 68° F. and 56.3° F. respectively, and soil moisture was dry.
(§3) Trial was rated at 6, 13, 20, 27 and 34 days after product application (DAA). On each rating date, Percent phytotoxicity and weed control based on a 0 to 100% visual scale, and weed density (number of weeds counted on 3 square yard quadrats) per plot were conducted.
(§4) Data was checked for normality assumptions and analyzed using a univariate Analysis of Variance, and the Least Significant Difference (LSD) mean separation test at a significance level of (α=0.1). Significant differences (p<0.1) were found for the dependent variables assessed at all rating dates (See ANOVA tables). Overall, treatments 5 (Raptor 4), 4 (PRONAMIDE and IMAZETHAPYR) and treatment 3 (WW2019-2) consistently provided the best control (higher % control and lower weed densities). Treatment efficacy as evidenced by % burndown (percent control was higher than 70% in all treatments 3-5) and weed counts (remained steady or declined up to this rating date) peaked at 27 DAA and subsequently declined (weed counts increased and percent control declined) at 34 DAA.

[3] = system: velvetleaf; settings: 0.10 kg/ha, regardless of the application method; cited from earlier work
[4] = system: weeds in seedling alfalfa; assay: Field trial in seedling alfalfa, Brawley, Calif.: weed density (weeds counted on square yard quadrats); assay type: in vivo; settings: use rates of Table 5
Description: as §1, §2, §3, §4

[5] = system: jimsonweed; settings: 0.05 kg/ha; cited from earlier work

Compound: CCc1cnc(C2=NC(C)(C(C)C)C(=O)N2)c(C(=O)O)c1 (centres unmarked) [IMAZETHAPYR, 2-[4,5-dihydro-4-methyl-4-(1-methylethyl)-5-oxo-1H-imidazol-2-yl]-5-ethyl-3-pyridinecarboxylic acid]
- Control of smooth pigweed [1]: ≥ 90%
- Percent Weed Control (Burndown), mean ([2]; 6 DA-A): 28%
- Percent Weed Control (Burndown), mean ([2]; 13 DA-A): 33%
- Percent Weed Control (Burndown), mean ([2]; 20 DA-A): 75%
- Percent Weed Control (Burndown), mean ([2]; 27 DA-A): 79%
- Percent Weed Control (Burndown), mean ([2]; 34 DA-A): 38%
- Overall weed control (higher % control and lower weed densities), in words ([2]; listed as Treatment 3): good weed control
- Overall weed control (higher % control and lower weed densities), in words ([2]; listed as WW2019-2): best control
- Control of velvetleaf [3]: ≥ 90%
- Weed Density, mean ([4]; 6 DA-A): 35 Weeds per yd^2
- Weed Density, mean ([4]; 13 DA-A): 25 Weeds per yd^2
- Weed Density, mean ([4]; 20 DA-A): 29 Weeds per yd^2
- Weed Density, mean ([4]; 27 DA-A): 24 Weeds per yd^2
- Weed Density, mean ([4]; 34 DA-A): 39 Weeds per yd^2
- Control of jimsonweed, better postemergence compared to soil applications [5]: 30%

Compound: C#CC(C)(C)NC(=O)c1cc(Cl)cc(Cl)c1 [PRONAMIDE, 3,5-dichloro-n-(1,1-dimethyl-2-propynyl) benzamide]
- Percent Weed Control (Burndown), mean ([2]; 6 DA-A): 15%
- Percent Weed Control (Burndown), mean ([2]; 13 DA-A): 20%
- Percent Weed Control (Burndown), mean ([2]; 20 DA-A): 38%
- Percent Weed Control (Burndown), mean ([2]; 27 DA-A): 25%
- Percent Weed Control (Burndown), mean ([2]; 34 DA-A): 8%
- Overall weed control (higher % control and lower weed densities), in words [2]: less beneficial weed control
- Weed Density, mean ([4]; 6 DA-A): 51 Weeds per yd^2
- Weed Density, mean ([4]; 13 DA-A): 41 Weeds per yd^2
- Weed Density, mean ([4]; 20 DA-A): 42 Weeds per yd^2
- Weed Density, mean ([4]; 27 DA-A): 43 Weeds per yd^2
- Weed Density, mean ([4]; 34 DA-A): 81 Weeds per yd^2
